Reference: patent US20040018500A1, “Methods and systems for analyzing complex biological systems” (priority 2001, published 2004)

Tested on: Saccharomyces cerevisiae wild type strain BY4743
Assay: AF1 metabolite analysis (GC-MS, LC-MS) of yeast treated with antifungal drugs
Assay type: cell-based
Details: for # Compounds perturbed: yeast, 2×MIC, two hours

For C[C@@H]1[C@H](O)[C@@H](C)/C=C/C=C/C=C/C=C/C=C/C=C/C=C/[C@H](O[C@@H]2O[C@H](C)[C@@H](O)[C@H](N)[C@@H]2O)C[C@@H]2O[C@](O)(C[C@@H](O)C[C@@H](O)[C@H](O)CC[C@@H](O)C[C@@H](O)CC(=O)O[C@H]1C)C[C@H](O)[C@H]2C(=O)O [Amphoteracin B], the “Fold Change of TMS mevalonic acid lactone” value (GC) was −0.9767, the “Fold Change of alanine” value (GC) was −0.7773 and the “Fold Change of asparagine” value (GC) was −1. For the same molecule, the “Fold Change of aspartic acid” value (GC) was −0.9743, the “Fold Change of campesterol” value (GC) was 0 and the “Fold Change of desmosterol” value (GC) was 0. For the same molecule, the “Fold Change of disaccaride1” value (GC) was −1, the “Fold Change of disaccaride2” value (GC) was −0.9977 and the “Fold Change of disaccaride3” value (GC) was −0.9977. For the same molecule, the “Fold Change of ergosterol” value (GC) was 2.303, the “Fold Change of fucosterol” value (GC) was −0.6553 and the “Fold Change of glutamine” value (GC) was −0.9116. For the same molecule, the “Fold Change of glycanopyrose” value (GC) was −0.958, the “Fold Change of glycerol” value (GC) was −0.815 and the “Fold Change of glycine” value (GC) was 0.8807. For the same molecule, the “Fold Change of hexadecanoic acid” value (GC) was −0.2427, the “Fold Change of iso citric acid” value (GC) was −0.6183 and the “Fold Change of isoleucine” value (GC) was −0.9533. For the same molecule, the “Fold Change of lanosterol” value (GC) was −1, the “Fold Change of leucine” value (GC) was −0.9443 and the “Fold Change of lysine” value (GC) was −0.3925. For the same molecule, the “Fold Change of malic acid” value (GC) was −0.963, the “Fold Change of mevalonic acid lactone” value (GC) was −0.1276 and the “Fold Change of octadecanoic acid” value (GC) was 0.21. The “Fold Change of oleic acid” value (GC) was −0.4593, the “Fold Change of ornithine2” value (GC) was −1 and the “Fold Change of ornithine3” value (GC) was −0.9853. The “Fold Change of palmiteliadic acid” value (GC) was 0.515, the “Fold Change of phenylalanine” value (GC) was −0.9797 and the “Fold Change of phosphate” value (GC) was −0.007333. The “Fold Change of pyrimidine” value (GC) was −0.185, the “Fold Change of squalene” value (GC) was −0.5745 and the “Fold Change of tetradecanoic acid” value (GC) was 0.07967. For the same molecule, the “Fold Change of threonine2” value (GC) was −0.8553, the “Fold Change of threonine3” value (GC) was −0.8933 and the “Fold Change of tms glutamine3” value (GC) was −0.8935. The “Fold Change of tms lysine4” value (GC) was −0.9783, the “Fold Change of tms tyrosine2” value (GC) was −0.3593 and the “Fold Change of tms tyrosine3” value (GC) was −0.9473. For the same molecule, the “Fold Change of valine” value (GC) was −0.8673, the “Fold Change of abscisic acid” value (LC) was 0 and the “Fold Change of adenosine” value (LC) was 0. For the same molecule, the “Fold Change of glutamine/lysine” value (LC) was 0.3981, the “Fold Change of guanosine” value (LC) was 0.7598 and the “Fold Change of riboflavin” value (LC) was 0. The “Fold Change of serine” value (LC) was 0.2011, the “Fold Change of tyrosine” value (LC) was 0.2347 and the “# Compounds perturbed” value (P < 0.05) was 16. The “# Compounds perturbed” value (P < 0.1) was 21, the “Fold Change of 2-ketobutyric acid” value (nLC) was −0.9992 and the “Fold Change of 2-ketoglutaric” value (nLC) was 8.791. The “Fold Change of 3-indolylacetonitri” value (nLC) was −0.9998, the “Fold Change of 4-methylcatechol” value (nLC) was 0 and the “Fold Change of 4aminobutyrate/dimg” value (nLC) was −0.1983. For the same molecule, the “Fold Change of 5hydroxyLtryptophan” value (nLC) was 0, the “Fold Change of 6-benzylaminopurine” value (nLC) was 0 and the “Fold Change of DLaminoadipic acid” value (nLC) was 1.411. For the same molecule, the “Fold Change of NacetylDglucosamine” value (nLC) was 0, the “Fold Change of NacetylLglutamate” value (nLC) was −0.1078 and the “Fold Change of NacetylLornithine” value (nLC) was 0. The “Fold Change of abscisic acid” value (nLC) was 0, the “Fold Change of aconitic acid” value (nLC) was 0.5426 and the “Fold Change of adenine” value (nLC) was 0. For the same molecule, the “Fold Change of adenosine” value (nLC) was 0, the “Fold Change of alanine” value (nLC) was 0.1599 and the “Fold Change of allantoic acid” value (nLC) was −0.1456. The “Fold Change of allantoin” value (nLC) was 3.97, the “Fold Change of anthranilic acid” value (nLC) was 0 and the “Fold Change of arginine” value (nLC) was −0.4885. The “Fold Change of argininosuccinate” value (nLC) was 0, the “Fold Change of asparagine” value (nLC) was 0.1511 and the “Fold Change of aspartic” value (nLC) was 0.2407. For the same molecule, the “Fold Change of benzoic acid” value (nLC) was 0, the “Fold Change of biotin” value (nLC) was 1.077 and the “Fold Change of caffeic acid” value (nLC) was −0.5882. The “Fold Change of catechol” value (nLC) was 0, the “Fold Change of cinnamic acid” value (nLC) was 0 and the “Fold Change of citricanoic/itaconi” value (nLC) was 0. For the same molecule, the “Fold Change of citrulline” value (nLC) was 1659, the “Fold Change of coumaric acid” value (nLC) was 0 and the “Fold Change of cytidine” value (nLC) was −0.9986. For the same molecule, the “Fold Change of cytosine” value (nLC) was 0, the “Fold Change of decanoic acid” value (nLC) was −0.08716 and the “Fold Change of diaminopimelic acid” value (nLC) was 0. For the same molecule, the “Fold Change of dihydrofolic acid” value (nLC) was 0, the “Fold Change of estrone” value (nLC) was 0 and the “Fold Change of farnesol” value (nLC) was 0. The “Fold Change of folic acid” value (nLC) was 0, the “Fold Change of fumaric/3m2oxobutan” value (nLC) was 0.4423 and the “Fold Change of gallic acid” value (nLC) was 0.1622. The “Fold Change of gibberellic” value (nLC) was 0, the “Fold Change of giutamine/lysine” value (nLC) was 0.07919 and the “Fold Change of glucosamine6PO4” value (nLC) was −0.9951. For the same molecule, the “Fold Change of glutamic/acetylseri” value (nLC) was 0.1414, the “Fold Change of guanine” value (nLC) was 0 and the “Fold Change of guanosine” value (nLC) was 1.131. For the same molecule, the “Fold Change of histidine” value (nLC) was 0, the “Fold Change of homogentisic/uric” value (nLC) was 0 and the “Fold Change of hydrocortisone” value (nLC) was 0. For the same molecule, the “Fold Change of hypoxanthine” value (nLC) was 0.1655, the “Fold Change of indole3pyruvic acid” value (nLC) was 0 and the “Fold Change of inostol/glucos/sorb” value (nLC) was −0.5905. The “Fold Change of isocitric/citric/qu” value (nLC) was 2.549, the “Fold Change of jasmonic acid” value (nLC) was 0 and the “Fold Change of kinetin” value (nLC) was 0. The “Fold Change of lactic acid” value (nLC) was −0.02583, the “Fold Change of lauric acid” value (nLC) was 0.1225 and the “Fold Change of leucine/isoleucine/” value (nLC) was 0.1319. The “Fold Change of luteolin” value (nLC) was 0, the “Fold Change of malic acid” value (nLC) was 0.6212 and the “Fold Change of malonic acid” value (nLC) was 0. For the same molecule, the “Fold Change of menthol*” value (nLC) was −0.07013, the “Fold Change of methionine” value (nLC) was 0 and the “Fold Change of nopaline” value (nLC) was 0.3342. The “Fold Change of oleic acid” value (nLC) was 0.689, the “Fold Change of ornithine” value (nLC) was 2.534 and the “Fold Change of orotic acid” value (nLC) was 8380. For the same molecule, the “Fold Change of palmitic acid” value (nLC) was 0.3979, the “Fold Change of phenylalanine” value (nLC) was −0.1906 and the “Fold Change of phenylpyruvic acid” value (nLC) was 0. For the same molecule, the “Fold Change of phosphoenolpyruvate” value (nLC) was 0, the “Fold Change of pinitol” value (nLC) was 0 and the “Fold Change of pipecolic acid” value (nLC) was 0.08112. The “Fold Change of porphobilinogen” value (nLC) was 0, the “Fold Change of proline” value (nLC) was 0.4603 and the “Fold Change of pyridoxine” value (nLC) was −0.1294. For the same molecule, the “Fold Change of retinoic acid” value (nLC) was 0, the “Fold Change of salicylic/HObenzoic” value (nLC) was 0 and the “Fold Change of selenoOLmethionine” value (nLC) was 0.8515. The “Fold Change of serine” value (nLC) was 0.1091, the “Fold Change of shikimic acid” value (nLC) was 0 and the “Fold Change of sinapinic acid” value (nLC) was 0. For the same molecule, the “Fold Change of sorbitol/mannitol” value (nLC) was 0.2162, the “Fold Change of succinic” value (nLC) was 0.8663 and the “Fold Change of sucrose” value (nLC) was 0.4493. For the same molecule, the “Fold Change of sugar-phosphate” value (nLC) was −0.1067, the “Fold Change of tetradecanoic acid” value (nLC) was −0.07723 and the “Fold Change of threonine/homoserin” value (nLC) was 0.1267. For the same molecule, the “Fold Change of thymine” value (nLC) was 0, the “Fold Change of tryptophan” value (nLC) was 1.142 and the “Fold Change of tyrosine” value (nLC) was 0.0982. For the same molecule, the “Fold Change of uracil” value (nLC) was 1.511, the “Fold Change of uridine” value (nLC) was 0.1126 and the “Fold Change of urocanic acid” value (nLC) was 0. For the same molecule, the “Fold Change of valine” value (nLC) was 0.1624, the “Fold Change of xanthosineDiH2O” value (nLC) was 0 and the “Fold Change of zeatin” value (nLC) was 0. For the same molecule, the “Fold Change of 4-aminobenzoic acid” value (pLC) was 0, the “Fold Change of 4-methylcatechol” value (pLC) was 0 and the “Fold Change of 4ambutyrate/dimglyc” value (pLC) was 0.01279. The “Fold Change of 5hydroxyLtryptophan” value (pLC) was 0, the “Fold Change of 6benzylaminopurine” value (pLC) was 0 and the “Fold Change of DL-aminoadipic acid” value (pLC) was 0.4703. For the same molecule, the “Fold Change of NacetylDglucosamine” value (pLC) was 0, the “Fold Change of NacetylLglutamate” value (pLC) was 0 and the “Fold Change of NacetylLornithine” value (pLC) was 1.319. The “Fold Change of adenine” value (pLC) was 0.1153, the “Fold Change of alanine/sarcosine” value (pLC) was 0.2602 and the “Fold Change of allantoic acid” value (pLC) was 0. The “Fold Change of anthranilic acid” value (pLC) was 0, the “Fold Change of arginine” value (pLC) was 0.4662 and the “Fold Change of argininosuccinate” value (pLC) was 0. The “Fold Change of asparagine” value (pLC) was 0.6344, the “Fold Change of aspartic acid” value (pLC) was 0.3594 and the “Fold Change of biotin” value (pLC) was 0. The “Fold Change of caffeine” value (pLC) was 0, the “Fold Change of citric acid TME” value (pLC) was 0 and the “Fold Change of citrulline” value (pLC) was 1.798. The “Fold Change of cytidine” value (pLC) was 0, the “Fold Change of cytosine” value (pLC) was 0 and the “Fold Change of diaminopimelic acid” value (pLC) was 0. For the same molecule, the “Fold Change of dihydrofolic acid” value (pLC) was 0, the “Fold Change of dipicolinic acid” value (pLC) was 0 and the “Fold Change of folic acid” value (pLC) was 0. For the same molecule, the “Fold Change of glucosamine” value (pLC) was 0, the “Fold Change of glucosamine6PO4” value (pLC) was 0 and the “Fold Change of glutamate” value (pLC) was 0.4341. For the same molecule, the “Fold Change of glutathione” value (pLC) was −0.03348, the “Fold Change of histidine” value (pLC) was 0 and the “Fold Change of hydrocortisone” value (pLC) was 0. For the same molecule, the “Fold Change of hypoxanthine” value (pLC) was 0.2057, the “Fold Change of itaconic acid dimes” value (pLC) was 0 and the “Fold Change of kinetin” value (pLC) was 0. For the same molecule, the “Fold Change of leucine/isoleucine/” value (pLC) was 0.2746, the “Fold Change of luteolin” value (pLC) was 0 and the “Fold Change of mannitol” value (pLC) was 0.4543. The “Fold Change of methionine” value (pLC) was 0.3299, the “Fold Change of mevalonic lactone” value (pLC) was −0.4606 and the “Fold Change of niacinamide” value (pLC) was 0. The “Fold Change of nicotinic acid” value (pLC) was −0.9989, the “Fold Change of nopaline” value (pLC) was 0 and the “Fold Change of ornithine” value (pLC) was 0.5049. The “Fold Change of phenylalanine” value (pLC) was 0.4036, the “Fold Change of phosphoenolpyruvate” value (pLC) was 0 and the “Fold Change of pipecolic acid” value (pLC) was 0.5237. The “Fold Change of progesterone” value (pLC) was 0, the “Fold Change of proline” value (pLC) was 0.6707 and the “Fold Change of pyridoxine” value (pLC) was −0.1684. The “Fold Change of selenoDLmethionine” value (pLC) was 1.178, the “Fold Change of sugar-phosphate” value (pLC) was 0 and the “Fold Change of thiamine” value (pLC) was 0. For the same molecule, the “Fold Change of threonine/homoserin” value (pLC) was 0.3145, the “Fold Change of thymine” value (pLC) was 0 and the “Fold Change of tryptophan” value (pLC) was 0. For the same molecule, the “Fold Change of uric acid” value (pLC) was 308, the “Fold Change of urocanic acid” value (pLC) was 0 and the “Fold Change of xanthosine(diH2O)” value (pLC) was 0. The “Fold Change of zeatin” value (pLC) was 0.
